Test results taken from ChEMBL document CHEMBL4715723, “Discovery and development of benzo-[1,2,4]-triazolo-[1,4]-oxazepine GPR142 agonists for the treatment of diabetes” (Bioorg Med Chem Lett, 2016).
Active and inactive are the calls of the source. The rule behind the calls is not given here.

Tests used:
Cytochrome P450 3A4 = Cytochrome P450 3A4 (Homo sapiens, UniProt P08684); experiment: Inhibition of human liver microsomes CYP3A4 using testosterone as substrate by MUX-MS/MS analysis; format: ADME, Microsome
[1] = target: Voltage-gated inwardly rectifying potassium channel KCNH2 (Homo sapiens, UniProt Q12809); experiment: Inhibition of human ERG expressed in HEK293 cells assessed as reduction in S35-MK-0499 binding; format: cell-based
[2] = target: T1, Probable G-protein coupled receptor 142 (Homo sapiens, UniProt Q7Z601); experiment: Agonist activity at human GPR142 expressed in CHO cells measured for 3 mins by Fluo-4M dye based FLIPR assay; format: cell-based; details: read-out: IC50 (the source's name)
T1 sequence (Q7Z601 whole entry): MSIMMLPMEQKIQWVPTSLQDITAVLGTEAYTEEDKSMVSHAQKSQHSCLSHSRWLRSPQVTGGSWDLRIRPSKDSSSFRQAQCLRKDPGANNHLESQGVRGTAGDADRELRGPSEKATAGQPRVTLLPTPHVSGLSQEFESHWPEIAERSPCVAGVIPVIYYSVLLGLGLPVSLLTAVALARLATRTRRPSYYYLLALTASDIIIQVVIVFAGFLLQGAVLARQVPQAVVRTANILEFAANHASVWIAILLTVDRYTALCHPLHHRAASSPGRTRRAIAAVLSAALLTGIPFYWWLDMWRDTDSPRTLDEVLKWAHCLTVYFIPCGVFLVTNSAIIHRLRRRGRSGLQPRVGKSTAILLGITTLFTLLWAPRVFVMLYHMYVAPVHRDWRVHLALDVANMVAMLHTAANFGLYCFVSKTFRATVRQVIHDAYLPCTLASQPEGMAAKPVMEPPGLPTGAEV

[3] = Volume of distribution at steady state in rat at 2 mg/kg, po or 1 mg/kg, iv; format: ADME, organism-based; details: in vivo, read-out: Vdss
[4] = Oral bioavailability in rat at 2 mg/kg; format: ADME, organism-based; details: in vivo
Cytochrome P450 2C9 = Cytochrome P450 2C9 (Homo sapiens, UniProt P11712); experiment: Inhibition of human liver microsomes CYP2C9 using diclofenac as substrate by MUX-MS/MS analysis; format: ADME, Microsome
Cytochrome P450 2D6 = Cytochrome P450 2D6 (Homo sapiens, UniProt P10635); experiment: Inhibition of human liver microsomes CYP2D6 using dextromethorphan as substrate by MUX-MS/MS analysis; format: ADME, Microsome
[5] = Half life in rat at 2 mg/kg, po or 1 mg/kg, iv; format: ADME, organism-based; details: in vivo
Mus musculus [6] = experiment: Antidiabetic activity in […] mouse harboring GPR142 deficient assessed as reduction in dextrose-induced blood glucose peak at 30 mg/kg, po administered before dextrose stimulation and measured upto 120 mins after dextrose administration by OGTT assay; format: functional, organism-based; details: time min <=120
[7] = Clearance in rat at 2 mg/kg, po or 1 mg/kg, iv; format: ADME, organism-based; details: in vivo
[8] = Protein binding in rat plasma assessed as unbound fraction; format: ADME, cell-free
Mus musculus [9] = experiment: Antidiabetic activity in […] mouse assessed as reduction in dextrose-induced blood glucose peak administered po before dextrose stimulation and measured upto 120 mins after dextrose administration by OGTT assay; format: functional, organism-based; details: time min <=120
[10] = target: T2, Probable G-protein coupled receptor 142 (Mus musculus, UniProt Q7TQN9); experiment: Agonist activity at mouse GPR142 expressed in CHO cells measured for 3 mins by Fluo-4M dye based FLIPR assay; format: cell-based; details: read-out: IC50 (the source's name)
T2 sequence (Q7TQN9 whole entry): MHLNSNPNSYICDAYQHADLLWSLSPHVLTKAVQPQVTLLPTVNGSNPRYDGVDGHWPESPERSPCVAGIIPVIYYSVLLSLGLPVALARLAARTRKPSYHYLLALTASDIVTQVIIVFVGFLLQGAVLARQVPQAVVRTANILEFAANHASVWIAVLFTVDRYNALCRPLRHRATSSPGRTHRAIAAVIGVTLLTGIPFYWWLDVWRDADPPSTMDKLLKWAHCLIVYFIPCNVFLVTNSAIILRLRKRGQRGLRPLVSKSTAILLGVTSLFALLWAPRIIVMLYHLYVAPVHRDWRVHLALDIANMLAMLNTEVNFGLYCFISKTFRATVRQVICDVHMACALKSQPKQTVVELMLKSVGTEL

Chain of Cytochrome P450 3A4 (P08684 whole entry): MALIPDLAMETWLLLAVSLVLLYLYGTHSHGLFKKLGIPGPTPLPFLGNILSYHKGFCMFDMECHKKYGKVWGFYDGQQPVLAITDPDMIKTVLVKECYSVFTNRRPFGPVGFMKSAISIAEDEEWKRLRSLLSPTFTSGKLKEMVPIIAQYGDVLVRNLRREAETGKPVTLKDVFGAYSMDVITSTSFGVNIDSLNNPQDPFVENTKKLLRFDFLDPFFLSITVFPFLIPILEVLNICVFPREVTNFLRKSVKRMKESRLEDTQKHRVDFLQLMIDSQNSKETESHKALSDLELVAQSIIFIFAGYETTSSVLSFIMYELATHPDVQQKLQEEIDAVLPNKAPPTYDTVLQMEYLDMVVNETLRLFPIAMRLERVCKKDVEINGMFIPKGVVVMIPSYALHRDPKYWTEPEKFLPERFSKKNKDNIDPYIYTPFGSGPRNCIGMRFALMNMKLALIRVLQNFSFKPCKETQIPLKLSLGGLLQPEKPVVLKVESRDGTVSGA
Chain of Voltage-gated inwardly rectifying potassium channel KCNH2 (Q12809 whole entry): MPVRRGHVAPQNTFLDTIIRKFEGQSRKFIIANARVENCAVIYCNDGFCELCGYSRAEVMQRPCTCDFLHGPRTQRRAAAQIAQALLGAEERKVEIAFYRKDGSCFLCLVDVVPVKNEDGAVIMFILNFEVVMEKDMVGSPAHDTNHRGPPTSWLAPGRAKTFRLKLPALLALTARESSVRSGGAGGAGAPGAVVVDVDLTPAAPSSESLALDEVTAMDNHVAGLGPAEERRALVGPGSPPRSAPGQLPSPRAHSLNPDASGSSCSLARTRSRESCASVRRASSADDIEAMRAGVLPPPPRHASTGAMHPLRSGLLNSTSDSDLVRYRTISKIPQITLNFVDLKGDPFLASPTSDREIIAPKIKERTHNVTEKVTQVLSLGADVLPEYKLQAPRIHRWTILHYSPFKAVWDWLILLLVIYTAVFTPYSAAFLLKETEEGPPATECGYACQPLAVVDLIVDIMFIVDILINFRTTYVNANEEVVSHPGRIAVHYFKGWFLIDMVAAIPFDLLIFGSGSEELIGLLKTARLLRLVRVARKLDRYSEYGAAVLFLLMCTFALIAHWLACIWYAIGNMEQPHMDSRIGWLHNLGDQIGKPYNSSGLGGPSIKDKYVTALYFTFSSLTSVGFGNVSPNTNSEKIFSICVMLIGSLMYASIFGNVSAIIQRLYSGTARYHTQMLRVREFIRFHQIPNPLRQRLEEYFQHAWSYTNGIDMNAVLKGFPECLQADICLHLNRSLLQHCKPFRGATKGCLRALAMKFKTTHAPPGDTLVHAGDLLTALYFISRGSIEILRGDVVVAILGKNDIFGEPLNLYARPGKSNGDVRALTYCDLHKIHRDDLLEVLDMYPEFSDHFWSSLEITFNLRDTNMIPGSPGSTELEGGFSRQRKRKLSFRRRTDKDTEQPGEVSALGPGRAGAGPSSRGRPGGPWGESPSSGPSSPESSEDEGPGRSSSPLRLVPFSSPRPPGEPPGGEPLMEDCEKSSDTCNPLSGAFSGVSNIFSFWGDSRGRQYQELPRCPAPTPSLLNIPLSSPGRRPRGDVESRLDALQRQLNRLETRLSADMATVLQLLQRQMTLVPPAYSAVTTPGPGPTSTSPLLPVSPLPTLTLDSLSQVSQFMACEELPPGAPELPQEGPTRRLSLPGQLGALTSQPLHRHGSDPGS
Chain of Cytochrome P450 2C9 (P11712 whole entry): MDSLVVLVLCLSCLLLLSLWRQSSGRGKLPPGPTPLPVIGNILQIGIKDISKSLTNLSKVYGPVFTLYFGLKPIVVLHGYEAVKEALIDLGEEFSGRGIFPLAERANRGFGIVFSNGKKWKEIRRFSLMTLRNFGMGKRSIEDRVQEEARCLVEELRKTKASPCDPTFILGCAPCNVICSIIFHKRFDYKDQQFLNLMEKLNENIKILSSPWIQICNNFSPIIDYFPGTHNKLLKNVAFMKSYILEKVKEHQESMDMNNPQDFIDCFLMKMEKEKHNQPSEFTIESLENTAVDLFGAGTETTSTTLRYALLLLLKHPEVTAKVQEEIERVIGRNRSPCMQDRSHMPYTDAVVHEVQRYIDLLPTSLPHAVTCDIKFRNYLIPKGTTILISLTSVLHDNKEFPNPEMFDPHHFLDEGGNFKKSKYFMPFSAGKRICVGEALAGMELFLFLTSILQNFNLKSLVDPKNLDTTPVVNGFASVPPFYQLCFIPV
Chain of Cytochrome P450 2D6 (P10635 whole entry): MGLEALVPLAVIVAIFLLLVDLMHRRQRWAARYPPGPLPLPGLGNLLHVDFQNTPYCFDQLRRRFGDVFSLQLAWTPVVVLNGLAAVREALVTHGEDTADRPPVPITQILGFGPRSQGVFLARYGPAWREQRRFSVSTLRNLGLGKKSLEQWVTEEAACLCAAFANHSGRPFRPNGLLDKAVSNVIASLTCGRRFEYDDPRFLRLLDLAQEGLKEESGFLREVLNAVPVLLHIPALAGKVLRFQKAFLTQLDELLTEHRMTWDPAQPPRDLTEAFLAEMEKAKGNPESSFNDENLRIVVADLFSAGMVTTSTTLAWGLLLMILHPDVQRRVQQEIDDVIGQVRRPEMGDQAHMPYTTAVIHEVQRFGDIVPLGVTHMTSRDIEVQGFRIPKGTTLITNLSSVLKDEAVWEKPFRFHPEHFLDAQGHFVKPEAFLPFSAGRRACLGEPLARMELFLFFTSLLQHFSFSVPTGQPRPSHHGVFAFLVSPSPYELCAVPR

FC(F)(F)Oc1cccc(Nc2nnc3n2CCOc2ccc(-c4ccncc4)cc2-3)c1
IC50 (Cytochrome P450 3A4): 1610 nM | IC50 [1]: 0.605 µM | EC50 [2]: 63 nM | Vd [3]: 2.2 L/kg | bioavailability [4]: 40% | IC50 (Cytochrome P450 2C9): 934 nM | IC50 (Cytochrome P450 2D6): 802 nM | half-life [5]: 60 min | Activity (Mus musculus [6]): inactive | clearance [7]: 23.9 mL/min/kg | fraction unbound [8]: 0.0041 | Activity (Mus musculus [9]): Dose-dependent effect

COc1cccc(NC(=O)N2CCOc3ccc(-c4ccncc4)cc3C2)c1
EC50 [10]: 305 nM | EC50 [2]: 249 nM

O=C(Nc1ccc(Cl)c(Cl)c1)N1CCNc2ccc(-c3ccncc3)cc2C1
EC50 [10]: 158 nM | EC50 [2]: 146 nM

COc1cccc(NC(=O)N2CCOc3ccc(-c4ccncc4OC)cc3C2)c1
EC50 [10]: 486 nM | EC50 [2]: 187 nM

COc1cccc(NC(=O)N2CCOc3ccc(-c4ccnc5ccccc45)cc3C2)c1
EC50 [10]: 216 nM | EC50 [2]: 962 nM

O=C(Nc1ccc(Cl)c(Cl)c1)N1Cc2ccc(-c3ccncc3)cc2C1
EC50 [10]: > 20000 nM | EC50 [2]: > 20000 nM

Cc1cc(-c2ccc3c(c2)-c2nnc(Nc4cccc(Cl)c4)n2CCO3)ccn1
IC50 (Cytochrome P450 3A4): 11800 nM | Vd [3]: 1.9 L/kg | bioavailability [4]: 40% | IC50 (Cytochrome P450 2C9): 3440 nM | IC50 (Cytochrome P450 2D6): 792 nM | half-life [5]: 150 min | clearance [7]: 7.8 mL/min/kg | fraction unbound [8]: 0.0337

O=C(Nc1ccc(F)c(Cl)c1)N1CCOc2ccc(-c3ccncc3)cc2C1
EC50 [10]: 613 nM | EC50 [2]: 132 nM

CCCCN1CCN(C(=O)Nc2ccc(Cl)c(Cl)c2)Cc2cc(-c3ccncc3)ccc21
EC50 [10]: 4500 nM | EC50 [2]: > 20000 nM

O=C(Cc1cccc(C(F)(F)F)c1)N1CCOc2ccc(-c3ccncc3)cc2C1
EC50 [10]: 611 nM | EC50 [2]: 1640 nM

Cc1cc(-c2ccc3c(c2)-c2nnc(Oc4ccccc4Cl)n2CCO3)ccn1
IC50 (Cytochrome P450 3A4): > 50000 nM | IC50 [1]: 3.51 µM | EC50 [2]: 102 nM | IC50 (Cytochrome P450 2C9): > 50000 nM | IC50 (Cytochrome P450 2D6): 24300 nM

O=C(Nc1cccc(Cl)c1)N1CCOc2ccc(-c3ccncc3)cc2C1
EC50 [10]: 164 nM | EC50 [2]: 108 nM | Vd [3]: 2 L/kg | bioavailability [4]: 1% | half-life [5]: 39.6 min | clearance [7]: 56.1 mL/min/kg | fraction unbound [8]: 0.0086

O=C(Nc1ccc(F)cc1)N1CCOc2ccc(-c3ccncc3)cc2C1
EC50 [10]: 2610 nM | EC50 [2]: 1220 nM

N#Cc1cccc(NC(=O)N2CCOc3ccc(-c4ccnc(N)c4)cc3C2)c1
EC50 [10]: 448 nM | EC50 [2]: 810 nM

Cc1cc(-c2ccc3c(c2)-c2nnc(Cc4cccc(Cl)c4)n2CCO3)ccn1
IC50 (Cytochrome P450 3A4): 1060 nM | IC50 [1]: 3.86 µM | EC50 [2]: 593 nM | IC50 (Cytochrome P450 2C9): 1450 nM | IC50 (Cytochrome P450 2D6): 1010 nM

COc1cccc(NC(=O)N2CCOc3ccc(-c4ccnc(C)c4)cc3C2)c1
EC50 [2]: 374 nM

O=S(=O)(Cc1cccc(C(F)(F)F)c1)N1CCOc2ccc(-c3ccncc3)cc2C1
EC50 [10]: 157 nM | EC50 [2]: 2290 nM

O=C(Nc1ccc(Cl)c(Cl)c1)N1CCCc2ccc(-c3ccncc3)cc21
EC50 [10]: > 20000 nM | EC50 [2]: > 20000 nM

O=C(Nc1cccc(F)c1)N1CCOc2ccc(-c3ccncc3)cc2C1
EC50 [10]: 413 nM | EC50 [2]: 224 nM

O=C(Nc1ccc(Cl)c(Cl)c1)N1CCc2ccc(-c3ccncc3)cc21
EC50 [10]: 2950 nM | EC50 [2]: > 20000 nM

N#Cc1cccc(NC(=O)N2CCOc3ccc(-n4ccnc4)cc3C2)c1
EC50 [2]: 110 nM

O=C(Nc1ccccc1)N1CCOc2ccc(-c3ccncc3)cc2C1
EC50 [10]: 851 nM | EC50 [2]: 793 nM

O=C(Nc1cccc(C(F)(F)F)c1)N1CCOc2ccc(-c3ccncc3)cc2C1
EC50 [10]: 110 nM | EC50 [2]: 158 nM
